Experimental data published in patent US9920032B2, “Heterocyclic compounds useful as pim kinase inhibitors” (Incyte Corporation, priority 2015, dated 2018).

What was measured:
Format in all cases: biochemical
[1] = molecular target: Pim-3 (Homo sapiens (Human), UniProt Q86V86); assay: Pim-3 kinase assay; conditions: 1 mM ATP; read-out: PIM3 IC50
Outline: (§1)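 Biotin-BAD peptide (0.05 μM) phosphorylated with 1 mM ATP by 2.5 pM Pim-1 or 1.25 pM Pim-3 in Tris pH 7.5/MgCl2/DTT buffer, 1 h at 25° C. EDTA stop; phospho-BAD (Ser112) antibody with streptavidin donor and Protein-A acceptor beads, 1 h dark at room temperature before AlphaScreen-type bead read.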

[2] = molecular target: Pim-1 (Homo sapiens (Human), UniProt P11309); assay: Pim-1 kinase assay; conditions: 1 mM ATP; read-out: PIM1 IC50
Outline: as §1

[3] = molecular target: Pim-2 (Homo sapiens (Human), UniProt Q9P1W9); assay: Pim-2 kinase assay; conditions: 1 mM ATP; read-out: PIM2 IC50
Outline: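 TR-FRET assay with 1 nM enzyme, 0.05 μM fluorescein-CREBtide and 1 mM ATP in Tris pH 7.5 buffer with MgCl2, DTT, BSA and Tween-20, run 2 h at 25° C. Stopped with EDTA and Tb-labelled anti-CREB pSer133 antibody, then read after 30 min at room temperature.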

Chain of Pim-1 (P11309 whole entry): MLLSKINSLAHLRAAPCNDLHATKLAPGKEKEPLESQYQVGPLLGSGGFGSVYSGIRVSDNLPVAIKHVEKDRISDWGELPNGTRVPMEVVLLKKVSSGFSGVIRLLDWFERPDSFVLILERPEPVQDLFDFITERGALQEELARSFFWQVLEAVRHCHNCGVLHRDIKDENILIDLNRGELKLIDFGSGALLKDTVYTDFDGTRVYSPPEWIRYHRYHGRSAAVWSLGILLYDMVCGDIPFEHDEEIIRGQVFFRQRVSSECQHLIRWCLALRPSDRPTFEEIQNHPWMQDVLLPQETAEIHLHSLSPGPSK
Chain of Pim-2 (Q9P1W9 whole entry): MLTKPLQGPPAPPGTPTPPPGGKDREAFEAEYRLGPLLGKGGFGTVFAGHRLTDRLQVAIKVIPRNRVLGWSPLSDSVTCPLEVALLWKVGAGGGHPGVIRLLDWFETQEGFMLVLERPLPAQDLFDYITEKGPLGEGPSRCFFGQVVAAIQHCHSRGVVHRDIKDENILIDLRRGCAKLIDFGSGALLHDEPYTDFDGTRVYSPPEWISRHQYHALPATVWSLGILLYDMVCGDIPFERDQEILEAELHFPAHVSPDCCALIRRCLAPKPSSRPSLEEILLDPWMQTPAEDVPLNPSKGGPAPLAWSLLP

Compound	IC50 [1] [nM]	IC50 [2] [nM]	IC50 [3] [nM]
CO[C@@H]1CCN(c2cnc3c(C(=O)Nc4cnccc4[C@@H]4C[C@H](C)C[C@H](N)C4)ccc(F)c3c2)[C@H](C)C1 [Example 161, N-(4-((1R,3S,5S)-3-Amino-5-methylcyclohexyl)pyridin-3-yl)-5-fluoro-3-((2R,4R)-4-methoxy-2-methylpiperidin-1-yl)quinoline-8-carboxamide]	≤ 10	≤ 10	≤ 100
CO[C@@H]1CCN(c2cnc3c(C(=O)Nc4cnccc4[C@@H]4C[C@H](C)C[C@H](N)C4)ccc(F)c3c2)C[C@H]1F [Example 162, N-(4-((1R,3S,5S)-3-Amino-5-methylcyclohexyl)pyridin-3-yl)-5-fluoro-3-((3R,4R)-3-fluoro-4-methoxypiperidin-1-yl)quinoline-8-carboxamide]	≤ 10	≤ 10	≤ 100
COCCO[C@H]1CCN(c2cnc3c(C(=O)Nc4cnccc4[C@@H]4C[C@H](C)C[C@H](N)C4)ccc(F)c3c2)C[C@@H]1F [Example 163]	≤ 10	≤ 10	≤ 100
C[C@@H]1C[C@H](N)C[C@H](c2ccncc2NC(=O)c2ccc(F)c3cc(N4C[C@@H](O)C[C@H]4C)cnc23)C1 [Example 164, N-(4-((1R,3S,5S)-3-Amino-5-methylcyclohexyl]pyridin-3-yl}-5-fluoro-3-[(2R,4S)-4-hydroxy-2-methylpyrrolidin-1-yl]quinoline-8-carboxamide]	≤ 10	≤ 10	≤ 100
C[C@@H]1C[C@H](N)C[C@H](c2ccncc2NC(=O)c2ccc(F)c3cc(N4C[C@@H](O)C[C@@H]4C)cnc23)C1 [Example 165, N-(4-((1R,3S,5S)-3-Amino-5-methylcyclohexyl)pyridin-3-yl)-5-fluoro-3-((2S,4S)-4-hydroxy-2-methylpyrrolidin-1-yl)quinoline-8-carboxamide]	≤ 10	≤ 10	≤ 100
C[C@@H]1C[C@H](N)C[C@H](c2ccncc2NC(=O)c2ccc(F)c3cc(N4CC[C@@H]4C)cnc23)C1 [Example 166, N-(4-((1R,3S,5S)-3-Amino-5-methylcyclohexyl)pyridin-3-yl)-5-fluoro-3-((S)-2-methylazetidin-1-yl)quinoline-8-carboxamide]	≤ 10	≤ 10	≤ 100
C[C@@H]1C[C@H](N)C[C@H](c2ccncc2NC(=O)c2ccc(F)c3cc(N4CC[C@H]4C)cnc23)C1 [Example 167, N-(4-((1R,3S,5S)-3-Amino-5-methylcyclohexyl)pyridin-3-yl)-5-fluoro-3-((R)-2-methylazetidin-1-yl)quinoline-8-carboxamide]	≤ 10	≤ 10	≤ 100
CCOC(=O)N1CCN(c2cnc3c(C(=O)Nc4cnccc4[C@@H]4C[C@H](C)C[C@H](N)C4)ccc(F)c3c2)CC1 [Example 168, Ethyl 4-(8-(4-((1R,3S,5S)-3-amino-5-methylcyclohexyl)pyridin-3-ylcarbamoyl)-5-fluoroquinolin-3-yl)piperazine-1-carboxylate]	≤ 10	≤ 10	100 to 1000
C[C@@H]1C[C@H](N)C[C@H](c2ccncc2NC(=O)c2ccc(F)c3cc(N4CCCC[C@H]4C)cnc23)C1 [Example 169, N-(4-((1R,3S,5S)-3-Amino-5-methylcyclohexyl)pyridin-3-yl)-5-fluoro-3-((R)-2-methylpiperidin-1-yl)quinoline-8-carboxamide]	≤ 10	≤ 10	≤ 100
C[C@@H]1C[C@H](N)C[C@H](c2ccncc2NC(=O)c2ccc(F)c3cc(N4CCCC[C@@H]4C)cnc23)C1 [Example 170, N-(4-((1R,3S,5S)-3-Amino-5-methylcyclohexyl)pyridin-3-yl)-5-fluoro-3-((S)-2-methylpiperidin-1-yl)quinoline-8-carboxamide]	10 to 50	≤ 10	100 to 1000
